Measured values from patent publication US20250082624A1, “METHODS OF TREATING COGNITIVE IMPAIRMENT” (NeuroTherapia, Inc., priority 2023, published 2025).
Entries after “also recorded” stand apart in the source; their conditions may differ.

How the values were obtained:
[1] = Two-compartment PK model of NTRX-07 plasma data (fit and dose predictions); parameters: species or system human; details: compartmental PK model; for AUC24 h accumulation / Cmax accumulation: over 7 days
Experimental: Predictive compartmental PK analysis was utilized during dose escalation to predict PK outcomes at higher dose levels based on data from lower ones.
FIGS. 22A and 22B show the mathematical model with a simultaneous fit to data from all four cohorts (excluding fed subject data).
Compartmental analysis was performed using a two-compartment model with extravascular administration. Modeling was performed using a sophisticated MS Excel workbook developed by PharmaDirections.
FIGS. 24A-B show the mathematical model (heavy blue line) fit to the Cohort A data. The model will be further refined as data from additional cohorts become available. In particular, the terminal slope may change some, as the current data set is inadequate to define it. The model was built based on geometric mean data, but timepoint data were not used in cases where plasma concentrations were below the limit of quantitation for four or more of the six subjects.
Note that the model estimates are somewhat higher than those obtained from non-compartmental analysis since they consider the entire dosing interval as opposed to only the time points for which data are available.
These predictions are based on an assumption of linear PK across the specified dose range, and parameters could be underestimated if a saturable process limits bioavailability or is involved in drug clearance. Current data are insufficient to determine whether any saturable processes are involved in NTRX-007 uptake or clearance.
(§1) Compartmental analysis was performed based on a two-compartment model with extravascular administration. Modeling was performed using a sophisticated MS Excel workbook developed by PharmaDirections. Geometric mean data from Cohorts A and B were used to determine weighted least squares best fits for the PK parameters.
FIGS. 26A-26B show the mathematical model (heavy blue line) fit to the Cohort B data. The model was built based on geometric mean data, but timepoint data were not used in cases where plasma concentrations were below the limit of quantitation for four or more of the seven subjects.
as §1, with “A, B,” for “A”, “C” for “B”
The model predicts somewhat higher exposure for b.i.d. dosing.
as §1, with “A, B, C,” for “A”, “D” for “B”

dogs = experiment: Dog toxicity (CNS safety issue raised by FDA); format: in vivo; details: 200 mg/kg/day
[2] = tested on: APP/PS1 mouse model of AD; details: cited from earlier work

## CC1(Cc2ccccc2)COc2cc(C(=O)N3CCCCC3)ccc21 (stereo not shown) [NTRX-07, 3-benzyl-3-methyl-2,3-dihydrobenzofuran-6-carboxylic acid-piperidine amide]
[1]; 40 mg SDD QD, Day 1
  AUC24 h: 96 ng·h/mL
  Cmax: 43.9 ng/mL
  Cmin: 0.0 ng/mL
  Tmax: 4.8 min
[1]; 40 mg SDD QD, Day 2
  AUC24 h: 100 ng·h/mL
  Cmax: 44.3 ng/mL
  Cmin: 0.4 ng/mL
  Tmax: 4.8 min
[1]; 40 mg SDD QD, Day 3
  AUC24 h: 101 ng·h/mL
  Cmax: 44.4 ng/mL
  Cmin: 0.5 ng/mL
  Tmax: 4.8 min
[1]; 40 mg SDD QD, Day 4
  AUC24 h: 101 ng·h/mL
  Cmax: 44.4 ng/mL
  Cmin: 0.5 ng/mL
  Tmax: 4.8 min
[1]; 40 mg SDD QD, Day 5
  AUC24 h: 101 ng·h/mL
  Cmax: 44.4 ng/mL
  Cmin: 0.5 ng/mL
  Tmax: 4.8 min
[1]; 40 mg SDD QD, Day 6
  AUC24 h: 101 ng·h/mL
  Cmax: 44.4 ng/mL
  Cmin: 0.5 ng/mL
  Tmax: 4.8 min
[1]; 40 mg SDD QD, Day 7
  AUC24 h: 101 ng·h/mL
  Cmax: 44.4 ng/mL
  Cmin: 0.5 ng/mL
  Tmax: 4.8 min
[1]; 40 mg SDD QD
  AUC24 h accumulation: 104%
  Cmax accumulation: 101%
[1]; 120 mg SDD QD, Day 1
  AUC24 h: 210 ng·h/mL
  Cmax: 74.6 ng/mL
  Tmax: 37.8 min
[1]; 120 mg SDD QD, Day 2
  AUC24 h: 227 ng·h/mL
  Cmax: 76.1 ng/mL
  Cmin: 1.5 ng/mL
  Tmax: 37.8 min
[1]; 120 mg SDD QD, Day 3
  AUC24 h: 230 ng·h/mL
  Cmax: 76.3 ng/mL
  Cmin: 1.8 ng/mL
  Tmax: 37.8 min
[1]; 120 mg SDD QD, Day 4
  AUC24 h: 231 ng·h/mL
  Cmax: 76.4 ng/mL
  Cmin: 1.8 ng/mL
  Tmax: 37.8 min
[1]; 120 mg SDD QD, Day 5
  AUC24 h: 231 ng·h/mL
  Cmax: 76.4 ng/mL
  Cmin: 1.8 ng/mL
  Tmax: 37.8 min
[1]; 120 mg SDD QD, Day 6
  AUC24 h: 231 ng·h/mL
  Cmax: 76.4 ng/mL
  Cmin: 1.8 ng/mL
  Tmax: 37.8 min
[1]; 120 mg SDD QD, Day 7
  AUC24 h: 231 ng·h/mL
  Cmax: 76.4 ng/mL
  Cmin: 1.8 ng/mL
  Tmax: 37.8 min
[1]; 120 mg SDD QD
  AUC24 h accumulation: 110%
  Cmax accumulation: 102%
[1]; 360 mg SDD QD, Day 1
  AUC24 h: 559 ng·h/mL
  Cmax: 162.0 ng/mL
  Tmax: 47.4 min
[1]; 360 mg SDD QD, Day 2
  AUC24 h: 616 ng·h/mL
  Cmax: 166.4 ng/mL
  Cmin: 4.7 ng/mL
  Tmax: 47.4 min
[1]; 360 mg SDD QD, Day 3
  AUC24 h: 628 ng·h/mL
  Cmax: 167.4 ng/mL
  Cmin: 5.4 ng/mL
  Tmax: 47.4 min
[1]; 360 mg SDD QD, Day 4
  AUC24 h: 631 ng·h/mL
  Cmax: 167.6 ng/mL
  Cmin: 5.7 ng/mL
  Tmax: 47.4 min
[1]; 360 mg SDD QD, Day 5
  AUC24 h: 631 ng·h/mL
  Cmax: 167.6 ng/mL
  Cmin: 5.7 ng/mL
  Tmax: 47.4 min
[1]; 360 mg SDD QD, Day 6
  AUC24 h: 631 ng·h/mL
  Cmax: 167.6 ng/mL
  Cmin: 5.7 ng/mL
  Tmax: 47.4 min
[1]; 360 mg SDD QD, Day 7
  AUC24 h: 631 ng·h/mL
  Cmax: 167.6 ng/mL
  Cmin: 5.7 ng/mL
  Tmax: 47.4 min
[1]; 360 mg SDD QD
  AUC24 h accumulation: 113%
  Cmax accumulation: 103%
dogs
  Seizures: Seizures in 1 or 2 dogs
[2]; AD models, FIG. 4
  Clearance of Aβ: improved clearance of A-beta proteins; also recorded: increases clearance of Aβ
[2]; APP/PS1 (Tg(APPswe,PSEN1dE9)85Dbo) mouse, FIG. 5
  Aβ plaque clearance: promotes Aβ plaque clearance
[2]; APP/PS1 mouse model of AD, FIG. 3
  CB2 increase / Iba1 colocalization in microglia (microglial activation): returned towards baseline
[2]; preclinical AD models
  Inflammatory changes in the brain: decreased inflammatory changes in the brain
  Long-term potentiation: improved long-term potentiation
